From patent US7785585B2, “Compositions comprising sclareol or derivatives thereof and uses thereof” (Avoca, Inc., priority 2004, dated 2010)

Tested on: Human subcutaneous preadipocytes
Experiment: Lipolysis assay (glycerol release) in differentiated human subcutaneous preadipocytes
Type: cell-based
Description: Human subcutaneous preadipocytes were obtained from human patients undergoing liposuction and pooled. The characteristics of the patients are shown below: • Sex: F • B.M.I.: 27.25 (avg.) • AGE: 43 (avg.) The human subcutaneous preadiposytes were designated lot #SL0028.
Preadipocytes were plated in 96-well plates and allowed to differentiate in the absence of compounds (e.g., sclareolide or sclareolide+GPM) for about two weeks. On the day of the assay, the culture medium was removed and the cells were washed gently with Krebs-Ringer buffer (KRB) in the following manner. 120 μl of medium in the wells was removed and 200 μl/well of KRB was added. The KRB in the wells was removed and another aliquot of 200 μl/well of the KRB was added. The wells were washed one row at a time to ensure that the cells remained moist and stayed attached to the plate.
Next, all of the KRB was removed and the cells were treated with 150 μl/well of the controls or 150 μl/well of the test compounds (resuspended in KRB with 1% BSA), either 1) sclareolide at […] or 2) sclareolide plus GPM at […], and incubated at 37° C. for five hours. The assay was performed in triplicate.
At the end of the treatment, 100 μl/well of the conditioned media was removed from the assay plate and added to the corresponding well of a new plate. […]
The optical density of each well of the new plate was measured at 540 nm.

CC1(C)CCC[C@]2(C)[C@H]3CC(=O)O[C@]3(C)CC[C@@H]12 [Sclareolide]
% Increase in Lipolysis over Control (Sclareolide concentration 10 μg/ml, 37° C. for five hours, glycerol assay, OD 540 nm, triplicate): 55%
Lipolysis over the control (in words) (sclareolide 10 μg/ml, sclareolide+GPM 7.5 μg/ml, five hours): significantly increased lipolysis over the control
